Source: the NIST ThermoML archive (doi:10.1016/j.fluid.2010.01.002)

Key:
[1] = refractive index (Na D-line) (dimensionless); details: 101.33 kPa, Liquid, Standard Abbe refractometry
[2] = 101.33 kPa, Liquid; for viscosity: Capillary tube (Ostwald / Ubbelohde) method; for mass density: Vibrating tube method
[3] = mn = molality of the nth substance listed, in mol/kg; details: 101 kPa, Liquid, Vibrating tube method

COS(=O)(=O)[O-].Cn1cc[n+](C)c1 [1,3-dimethylimidazolium methylsulfate]
Details	mass density, [2] [kg/m3]	refractive index, [1]	viscosity, [2] [mPa·s]
298.15 K	1341.52	1.481	72.16
308.15 K	1334.05	1.4782	54.42
318.15 K	1324.8	1.475	31.75
328.15 K	1320.61	1.4732	22.75

COS(=O)(=O)[O-].Cn1cc[n+](C)c1 [1,3-dimethylimidazolium methylsulfate] + CC#N
mass density [kg/m3], [3]
Details	298.15 K	308.15 K	318.15 K	328.15 K
m1 = 0.0154	778.02	767.2	756.08	745.07
m1 = 0.0262	778.92	768.15	757.02	746.08
m1 = 0.0367	779.78	769.04	757.94	746.91
m1 = 0.0442	780.39	769.64	758.56	747.53
m1 = 0.0552	781.25	770.6	759.47	748.49
m1 = 0.0697	782.39	771.79	760.65	749.74
m1 = 0.1092	785.54	775.06	763.89	753.13
m1 = 0.1516	788.85	778.45	767.29	756.65
m1 = 0.2159	793.88	783.51	772.5	761.83
m1 = 0.2981	799.99	789.92	779.03	768.5
m1 = 0.4347	809.98	799.82	788.98	778.24
m1 = 0.5442	817.8	807.73	797.07	786.34
m1 = 0.8609	839.07	828.64	818.22	808.33

COS(=O)(=O)[O-].Cn1cc[n+](C)c1 [1,3-dimethylimidazolium methylsulfate] + CN(C)C=O
mass density [kg/m3], [3]
Details	298.15 K	308.15 K	318.15 K	328.15 K
m1 = 0.0143	945.09	935.57	925.94	916.21
m1 = 0.0192	945.45	935.93	926.32	916.62
m1 = 0.0305	946.29	936.8	927.22	917.63
m1 = 0.0455	947.35	937.9	928.37	918.8
m1 = 0.06	948.34	938.95	929.46	919.9
m1 = 0.0821	949.86	940.49	930.98	921.44
m1 = 0.1125	951.98	942.64	933.15	923.55
m1 = 0.1679	955.78	946.48	937.03	927.44
m1 = 0.2459	961	951.8	942.42	932.69
m1 = 0.3069	964.96	955.78	946.45	936.8
m1 = 0.6259	984.18	975.15	965.75	956.63

COS(=O)(=O)[O-].Cn1cc[n+](C)c1 [1,3-dimethylimidazolium methylsulfate] + CO
mass density [kg/m3], [3]
Details	298.15 K	308.15 K	318.15 K	328.15 K
m1 = 0.0108	787.65	778.14	768.55	758.82
m1 = 0.0199	788.47	778.98	769.42	759.7
m1 = 0.0341	789.69	780.24	770.71	761.02
m1 = 0.0419	790.3	780.9	771.38	761.68
m1 = 0.0531	791.11	781.85	772.32	762.63
m1 = 0.0711	792.35	783.26	773.6	764.11
m1 = 0.0929	794.09	784.9	775.34	765.65
m1 = 0.1212	796.29	787.16	777.61	767.99
m1 = 0.1679	799.9	790.82	781.31	771.8
m1 = 0.2084	802.98	793.97	784.46	775.01
m1 = 0.2504	806.12	797.15	787.7	778.32
m1 = 0.2973	809.59	800.65	791.16	781.85
m1 = 0.3949	816.69	807.86	798.36	789.21
m1 = 0.4965	823.95	815.03	805.55	796.68
m1 = 0.5976	831	822.1	812.65	803.73
m1 = 0.7303	839.93	830.93	821.45	812.4
m1 = 0.9907	856.57	847.45	838.09	828.74
